Measured values reported in patent US20080287398A1, “COLD MENTHOL RECEPTOR-1 ANTAGONISTS” (priority 2007, published 2008).
Values joined by “and” are separate entries in the source; they are usually repeats but may differ in a detail not shown here. Equal entries are not always repeated. Where two headings read alike, the source gives them in different places.

Target: T1, canine TRPM8 (Canis lupus familiaris, UniProt Q1A7N1)
T1 construct: expressed in transfected cells
Assay: In vitro canine TRPM8 functional assay (Ca2+-sensitive dye, FLIPR/FDSS, icilin activation)
Format: cell-based
Settings: HEK293 cells expressing canine TRPM8, icilin activation; for IC50: eight-point dose-response; for % I (1 μM): 1 μM compound; for % I (0.5 μM): 0.5 μM compound
Procedure: The functional activity of compounds of Formula (I) was determined by measuring changes in intracellular calcium concentration using a Ca^2+-sensitive fluorescent dye. The changes in fluorescent signal were monitored by a fluorescence plate reader, either a FLIPR™ (Molecular Devices) or FDSS (Hamamatsu).
HEK293 cells stably expressing canine TRPM8 were routinely grown as monolayers in Dulbecco's minimum essential medium supplemented with 10% FBS, 1 mM L-glutamine, 100 units/mL penicillin, 100 ug/mL streptomycin and 400 μg/mL G418. Cells were maintained in 5% CO2 at 37° C. At 24 hrs prior to assay, cells were seeded in clear-base poly-D-lysine coated 384-well plates (BD Biosciences, NJ, USA) at a density of 5,000 cells per well in culture medium and grown overnight in 5% CO2 at 37° C. On assay day, growth media was removed and cells were loaded with Calcium 3 Dye (Molecular Devices) for 35 min at 37° C., under 5% CO2 and then for 25 min at room temperature and atmosphere. Subsequently, cells were tested for agonist-induced increases in intracellular Ca^2+ levels using FLIPR™ or FDSS. Cells were challenged with a compound of Formula (I) (at varying concentrations) and intracellular Ca^2+ was measured for 5 min prior to the addition of icilin to all wells to achieve a final concentration which produces approximately an 80% maximal response.
Basal FI was subtracted prior to normalizing data to percent of maximal response. Curves were generated using the average of quadruplicate wells for each data point, were analyzed using nonlinear regression of either sigmoidal dose response or sigmoidal dose response (variable slope). Finally, the EC50 and IC50 values were calculated with the best-fit dose curve determined by GraphPad Prism.

T1 sequence (Q1A7N1 1-1104): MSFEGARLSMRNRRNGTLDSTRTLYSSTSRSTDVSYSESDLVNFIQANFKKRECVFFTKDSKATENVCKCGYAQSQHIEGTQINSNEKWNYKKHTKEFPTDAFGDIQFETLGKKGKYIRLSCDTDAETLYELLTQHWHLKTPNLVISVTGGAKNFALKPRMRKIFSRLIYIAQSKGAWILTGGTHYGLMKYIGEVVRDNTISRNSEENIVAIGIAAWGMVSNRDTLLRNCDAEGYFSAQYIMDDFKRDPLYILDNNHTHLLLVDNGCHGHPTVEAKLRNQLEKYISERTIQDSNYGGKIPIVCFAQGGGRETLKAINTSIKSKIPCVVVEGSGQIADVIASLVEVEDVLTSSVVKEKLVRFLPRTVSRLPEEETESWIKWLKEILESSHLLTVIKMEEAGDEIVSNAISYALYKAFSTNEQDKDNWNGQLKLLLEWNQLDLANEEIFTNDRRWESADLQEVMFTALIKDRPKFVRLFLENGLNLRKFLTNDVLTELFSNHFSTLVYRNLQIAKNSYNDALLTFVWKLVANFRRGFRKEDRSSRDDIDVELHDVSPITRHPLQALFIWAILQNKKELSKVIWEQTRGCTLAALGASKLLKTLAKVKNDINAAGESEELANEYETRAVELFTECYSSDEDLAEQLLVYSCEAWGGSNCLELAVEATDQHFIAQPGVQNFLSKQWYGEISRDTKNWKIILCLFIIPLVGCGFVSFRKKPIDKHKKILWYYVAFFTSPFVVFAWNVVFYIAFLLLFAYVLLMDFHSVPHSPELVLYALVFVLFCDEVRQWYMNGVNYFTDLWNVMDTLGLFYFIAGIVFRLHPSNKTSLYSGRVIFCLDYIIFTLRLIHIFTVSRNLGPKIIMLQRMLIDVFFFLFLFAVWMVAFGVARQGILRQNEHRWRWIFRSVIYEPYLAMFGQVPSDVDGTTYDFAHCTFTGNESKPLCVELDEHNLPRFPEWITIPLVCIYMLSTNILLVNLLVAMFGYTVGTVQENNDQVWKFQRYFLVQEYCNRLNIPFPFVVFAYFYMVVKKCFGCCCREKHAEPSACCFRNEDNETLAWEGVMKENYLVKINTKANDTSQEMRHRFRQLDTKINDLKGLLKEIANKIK

CCOP(=O)(Cc1cc2ccccc2s1)OCc1c(Cl)cccc1Cl (stereo not shown) [Cpd 94, Benzo[b]thiophen-2-ylmethyl-phosphonic acid 2,6-dichloro-benzyl ester ethyl ester]
% I (5 μM) (5 μM compound): 98% | inhibition at 1 µM (HEK293, read-out: % I (1 μM), 1 μM compound): 79% | IC50 (IC50 (μM)): 0.6 µM

CCOP(=O)(OCC)C(Cc1ccc(F)c(F)c1)c1sc2ccccc2c1-c1cccc(F)c1 (stereo not shown) [Cpd 217, {2-(3,4-Difluoro-phenyl)-1-[3-(3-fluoro-phenyl)-benzo[b]thiophen-2-yl)-ethyl]-phosphonic acid diethyl ester]
inhibition at 0.5 µM (HEK293, read-out: % I (0.5 μM), 0.5 μM compound): 100% | IC50 (IC50 (μM)): 0.142 µM

CC(C)OP(=O)(OC(C)C)C(Cc1cccc(F)c1F)c1sc2ccccc2c1Br (stereo not shown) [Cpd 194]
% I (1 μM): 103% | IC50 (read-out: IC50): 0.041 µM

CCOP(=O)(OCC)C(Cc1cc(O)c(Cl)cc1F)c1sc2ccccc2c1Br (racemic) [Cpd 231]
% I (0.5 μM): 98% | IC50 (read-out: IC50): 0.122 µM

CCOP(=O)(OCC)C(Cc1ccc(SC(F)(F)F)cc1)c1sc2ccccc2c1Cl (racemic) [Cpd 283]
% I (0.5 μM): 103% | IC50 (read-out: IC50): 0.125 µM

CCOP(=O)(OCC)C(Cc1cccc(C(=O)OC)c1)c1sc2ccccc2c1Br (stereo not shown) [Cpd 313]
% I (0.5 μM): 102% | IC50 (read-out: IC50): 0.083 µM

CC(C)OP(=O)(OC(C)C)C(Cc1ccccc1F)c1sc2ccccc2c1Br (stereo not shown) [Cpd 196]
% I (1 μM): 100% | IC50 (read-out: IC50): 0.048 µM

CC(C)OP(=O)(OC(C)C)C(Cc1cccc(F)c1)c1sc2ccccc2c1Br (stereo not shown) [Cpd 192]
% I (1 μM): 103% | IC50 (read-out: IC50): 0.038 µM

CC(C)OP(=O)(OC(C)C)C(Cc1cc(C(F)(F)F)ccc1F)c1sc2ccccc2c1Cl (racemic) [Cpd 172]
% I (0.5 μM): 104% | IC50 (read-out: IC50): 0.105 µM

CCOP(=O)(OCC)C(Cc1ccc(SC)cc1)c1sc2ccccc2c1Br (racemic) [Cpd 247]
% I (0.5 μM): 103% | IC50 (read-out: IC50): 0.121 µM

CCOP(=O)(OCC)C(Cc1ccc(OC(F)(F)F)c(Cl)c1)c1sc2ccccc2c1Br (racemic) [Cpd 149]
% I (0.5 μM): 103% | IC50 (read-out: IC50): 0.06 µM

CC(C)OP(=O)(OC(C)C)C(Cc1ccc(OC(F)(F)F)c(Cl)c1)c1sc2ccccc2c1Cl (stereo not shown) [Cpd 184]
% I (0.5 μM): 104% | IC50 (read-out: IC50): 0.057 µM

CCC(C)P(=O)(C(C)CC)C(Cc1ccc(F)c(F)c1)c1oc2ccccc2c1Br (stereo not shown) [Cpd 123]
% I (1 μM): 103% | IC50 (read-out: IC50): 0.28 µM

CCOP(=O)(OCC)C(Cc1ccccc1C(F)(F)F)c1sc2ccccc2c1Br (stereo not shown) [Cpd 260]
% I (0.5 μM): 103% | IC50 (read-out: IC50): 0.077 µM and 0.056 µM

CCOP(=O)(OCC)C(Cc1cc2ccccc2s1)c1cc2ccccc2s1 (stereo not shown) [Cpd 90]
% I (1 μM): 89% | IC50 (read-out: IC50): 0.54 µM

CC(C)OP(=O)(OC(C)C)C(Cc1cccc(C(F)(F)F)c1Cl)c1sc2ccccc2c1Br (stereo not shown) [Cpd 268]
% I (0.5 μM): 104% | IC50 (read-out: IC50): 0.034 µM

CCOP(=O)(OCC)C(Cc1ccc(C(F)(F)F)cc1F)c1sc2ccccc2c1Cl (racemic) [Cpd 291]
% I (0.5 μM): 103% | IC50 (read-out: IC50): 0.156 µM

CCOP(=O)(OCC)C(Cc1cccc(F)c1F)c1sc2ccccc2c1C (stereo not shown) [Cpd 10]
% I (1 μM): 100% | IC50 (read-out: IC50): 0.043 µM

CC(C)OP(=O)(OC(C)C)C(Cc1ccc(C(F)(F)F)cc1)c1sc2ccccc2c1Cl (stereo not shown) [Cpd 175]
% I (0.5 μM): 104% | IC50 (read-out: IC50): 0.072 µM

CC(C)OP(=O)(OC(C)C)C(Cc1cccc(Cl)c1)c1cc2ccccc2s1 (stereo not shown) [Cpd 134]
% I (1 μM): 101% | IC50 (read-out: IC50): 0.34 µM

CC(C)OP(=O)(OC(C)C)/C(=C/c1ccc(F)c(F)c1)c1sc2ccccc2c1Br [Cpd 334, (E)-[1-(3-Bromo-benzo[b]thiophen-2-yl)-2-(3,4-difluoro-phenyl)-vinyl]-phosphonic acid diisopropyl ester]
inhibition at 0.5 µM (HEK293, 0.5 μM compound, read-out: % I (0.5 μM)): 97% | IC50 (read-out: IC50): 0.11 µM

CC(C)OP(=O)(OC(C)C)C(Cc1cccc(C(F)(F)F)c1F)c1sc2ccccc2c1Cl (racemic) [Cpd 168]
% I (0.5 μM): 104% | IC50 (read-out: IC50): 0.076 µM

CC(C)OP(=O)(OC(C)C)C(Cc1ccccc1)c1sc2ccccc2c1Cl (stereo not shown) [Cpd 179]
% I (0.5 μM): 103% | IC50 (read-out: IC50): 0.068 µM

CCOP(=O)(OCC)C(Cc1ccc(F)c(F)c1)c1sc2ccccc2c1-c1ccc(F)cc1 (racemic) [Cpd 220]
% I (0.5 μM): 101% | IC50 (read-out: IC50): 0.207 µM
